Data from ChEMBL document CHEMBL1201862, “PubChem BioAssay data set” (2004).
Counter-ions that a name gives are not always drawn. Activity calls are given as the source filed them.

Legend:
Vero [1] = test: viability of Vero cells under compound – cytotoxicity control for flavivirus capping enzyme inhibitors (AID 588742); format: functional; details: Chlorocebus sabaeus
Estrogen receptor = biological target: T1, Estrogen receptor (Homo sapiens, UniProt P03372);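 further: potency for inhibiting coactivator peptide recruitment to the receptor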
T1 sequence (P03372 whole entry): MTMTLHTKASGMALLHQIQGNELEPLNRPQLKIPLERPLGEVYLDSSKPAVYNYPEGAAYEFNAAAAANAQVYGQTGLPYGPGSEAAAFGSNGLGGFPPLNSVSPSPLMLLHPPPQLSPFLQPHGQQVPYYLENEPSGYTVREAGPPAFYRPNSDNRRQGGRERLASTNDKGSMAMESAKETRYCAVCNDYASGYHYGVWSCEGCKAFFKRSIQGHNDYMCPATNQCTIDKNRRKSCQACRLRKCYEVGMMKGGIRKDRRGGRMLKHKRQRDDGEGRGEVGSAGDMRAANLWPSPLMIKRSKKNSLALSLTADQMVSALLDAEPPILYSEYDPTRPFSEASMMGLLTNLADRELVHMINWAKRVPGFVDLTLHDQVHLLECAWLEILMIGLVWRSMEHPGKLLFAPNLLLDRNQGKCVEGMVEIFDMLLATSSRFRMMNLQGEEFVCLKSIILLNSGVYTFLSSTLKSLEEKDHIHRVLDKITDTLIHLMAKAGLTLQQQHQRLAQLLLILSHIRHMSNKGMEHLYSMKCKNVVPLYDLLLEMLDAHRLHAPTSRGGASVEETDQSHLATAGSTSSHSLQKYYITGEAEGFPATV

Genome polyprotein = Genome polyprotein (dengue virus type 2, UniProt P29990); test: flavivirus cap methylation enzyme inhibition – biochemical, confirmation dose response, primary screen (AID 588689); format: functional
Sequence of Genome polyprotein (P29990 2492-3391 limits assumed): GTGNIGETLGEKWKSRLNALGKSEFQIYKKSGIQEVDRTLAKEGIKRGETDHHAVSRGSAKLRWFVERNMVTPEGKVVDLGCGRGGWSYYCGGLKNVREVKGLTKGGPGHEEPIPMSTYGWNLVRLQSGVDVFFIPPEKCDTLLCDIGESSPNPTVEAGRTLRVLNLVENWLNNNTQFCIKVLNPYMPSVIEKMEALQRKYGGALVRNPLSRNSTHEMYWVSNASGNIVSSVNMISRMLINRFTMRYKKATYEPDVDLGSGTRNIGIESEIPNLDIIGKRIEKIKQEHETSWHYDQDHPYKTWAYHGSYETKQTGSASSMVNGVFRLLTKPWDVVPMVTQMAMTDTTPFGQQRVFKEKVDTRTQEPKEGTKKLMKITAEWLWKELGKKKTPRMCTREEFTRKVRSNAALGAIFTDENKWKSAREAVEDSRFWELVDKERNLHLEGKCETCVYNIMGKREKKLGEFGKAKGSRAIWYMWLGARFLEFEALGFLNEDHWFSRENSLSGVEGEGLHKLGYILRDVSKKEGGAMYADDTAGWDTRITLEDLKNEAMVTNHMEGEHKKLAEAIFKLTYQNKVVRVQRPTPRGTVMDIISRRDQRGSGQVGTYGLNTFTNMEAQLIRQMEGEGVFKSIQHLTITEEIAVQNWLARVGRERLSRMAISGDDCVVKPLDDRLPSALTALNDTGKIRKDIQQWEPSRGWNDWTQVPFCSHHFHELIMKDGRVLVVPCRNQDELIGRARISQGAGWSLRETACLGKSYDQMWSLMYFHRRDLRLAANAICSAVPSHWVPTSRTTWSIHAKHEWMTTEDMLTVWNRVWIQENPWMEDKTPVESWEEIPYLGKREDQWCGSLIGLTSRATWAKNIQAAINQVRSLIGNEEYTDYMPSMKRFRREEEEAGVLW

Mu-type opioid receptor = Mu-type opioid receptor (Homo sapiens, UniProt P35372); format: functional, cell-based;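 further: U2OS cells with beta-arrestin recruitment to OPRM1 by beta-gal complementation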
Sequence of Mu-type opioid receptor (P35372 whole entry): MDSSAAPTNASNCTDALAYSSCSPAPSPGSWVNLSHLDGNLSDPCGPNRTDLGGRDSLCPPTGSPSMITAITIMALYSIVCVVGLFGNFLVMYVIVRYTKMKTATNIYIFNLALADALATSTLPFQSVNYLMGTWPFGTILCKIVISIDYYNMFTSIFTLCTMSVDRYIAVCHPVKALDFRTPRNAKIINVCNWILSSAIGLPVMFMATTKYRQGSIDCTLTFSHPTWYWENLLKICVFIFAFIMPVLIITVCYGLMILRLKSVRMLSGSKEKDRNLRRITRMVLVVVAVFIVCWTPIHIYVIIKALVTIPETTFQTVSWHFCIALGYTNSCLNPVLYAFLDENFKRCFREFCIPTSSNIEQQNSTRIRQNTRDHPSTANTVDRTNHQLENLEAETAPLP

[2] = biological target: 5-hydroxytryptamine receptor 2A (Mus musculus, UniProt P35363); format: functional, cell-based;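 further: CHO-K1 cells with tagged receptor and beta-arrestin; agonist potency measured as compound-induced activation of the receptor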
Sequence of 5-hydroxytryptamine receptor 2A (P35363 whole entry): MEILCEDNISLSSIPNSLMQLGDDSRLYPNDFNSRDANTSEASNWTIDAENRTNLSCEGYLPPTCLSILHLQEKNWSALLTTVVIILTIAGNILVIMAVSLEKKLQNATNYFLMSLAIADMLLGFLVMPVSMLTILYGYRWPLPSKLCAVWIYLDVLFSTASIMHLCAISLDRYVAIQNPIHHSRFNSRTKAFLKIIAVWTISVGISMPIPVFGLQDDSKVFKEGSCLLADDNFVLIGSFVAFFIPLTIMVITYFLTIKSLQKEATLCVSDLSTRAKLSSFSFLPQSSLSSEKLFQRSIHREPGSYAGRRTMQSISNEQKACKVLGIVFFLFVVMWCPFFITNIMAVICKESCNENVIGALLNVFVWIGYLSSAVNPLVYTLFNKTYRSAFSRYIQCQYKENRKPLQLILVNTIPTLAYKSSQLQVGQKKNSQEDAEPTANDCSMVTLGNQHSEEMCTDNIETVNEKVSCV

[3] = biological target: T2, DNA repair protein RAD52 homolog (Homo sapiens, UniProt P43351); format: functional, biochemical
T2 sequence (P43351 whole entry): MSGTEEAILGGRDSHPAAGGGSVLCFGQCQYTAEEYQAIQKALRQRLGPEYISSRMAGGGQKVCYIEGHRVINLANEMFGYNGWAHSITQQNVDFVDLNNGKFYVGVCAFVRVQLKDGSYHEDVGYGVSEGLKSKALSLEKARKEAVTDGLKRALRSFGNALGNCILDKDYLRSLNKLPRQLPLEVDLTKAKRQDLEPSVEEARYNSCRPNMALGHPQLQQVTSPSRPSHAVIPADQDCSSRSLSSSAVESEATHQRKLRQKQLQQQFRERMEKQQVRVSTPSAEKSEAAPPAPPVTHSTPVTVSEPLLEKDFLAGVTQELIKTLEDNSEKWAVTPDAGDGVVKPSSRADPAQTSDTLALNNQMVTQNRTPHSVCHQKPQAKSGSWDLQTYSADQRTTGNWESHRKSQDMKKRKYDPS

Caspase-3 = biological target: T3, Caspase-3 (Homo sapiens, UniProt P42574); format: functional;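 further: Dose-response selectivity test against caspase-3 for candidate inhibitors of sentrin-specific proteases (SENPs)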
T3 sequence (P42574 whole entry): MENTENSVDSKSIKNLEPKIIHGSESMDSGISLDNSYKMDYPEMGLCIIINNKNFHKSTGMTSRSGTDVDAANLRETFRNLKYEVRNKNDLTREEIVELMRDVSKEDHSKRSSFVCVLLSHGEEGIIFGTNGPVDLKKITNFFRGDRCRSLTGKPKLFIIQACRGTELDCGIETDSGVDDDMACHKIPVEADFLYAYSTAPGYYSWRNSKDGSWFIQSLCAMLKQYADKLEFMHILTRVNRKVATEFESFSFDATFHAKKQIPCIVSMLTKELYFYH

[4] = biological target: T4, Sentrin-specific protease 6 (Homo sapiens, UniProt Q9GZR1); format: functional;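 further: Luminescence-based dose-response confirmatory assay of SENP6 inhibition, following up an ultra-high-throughput screen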
T4 sequence (Q9GZR1 whole entry): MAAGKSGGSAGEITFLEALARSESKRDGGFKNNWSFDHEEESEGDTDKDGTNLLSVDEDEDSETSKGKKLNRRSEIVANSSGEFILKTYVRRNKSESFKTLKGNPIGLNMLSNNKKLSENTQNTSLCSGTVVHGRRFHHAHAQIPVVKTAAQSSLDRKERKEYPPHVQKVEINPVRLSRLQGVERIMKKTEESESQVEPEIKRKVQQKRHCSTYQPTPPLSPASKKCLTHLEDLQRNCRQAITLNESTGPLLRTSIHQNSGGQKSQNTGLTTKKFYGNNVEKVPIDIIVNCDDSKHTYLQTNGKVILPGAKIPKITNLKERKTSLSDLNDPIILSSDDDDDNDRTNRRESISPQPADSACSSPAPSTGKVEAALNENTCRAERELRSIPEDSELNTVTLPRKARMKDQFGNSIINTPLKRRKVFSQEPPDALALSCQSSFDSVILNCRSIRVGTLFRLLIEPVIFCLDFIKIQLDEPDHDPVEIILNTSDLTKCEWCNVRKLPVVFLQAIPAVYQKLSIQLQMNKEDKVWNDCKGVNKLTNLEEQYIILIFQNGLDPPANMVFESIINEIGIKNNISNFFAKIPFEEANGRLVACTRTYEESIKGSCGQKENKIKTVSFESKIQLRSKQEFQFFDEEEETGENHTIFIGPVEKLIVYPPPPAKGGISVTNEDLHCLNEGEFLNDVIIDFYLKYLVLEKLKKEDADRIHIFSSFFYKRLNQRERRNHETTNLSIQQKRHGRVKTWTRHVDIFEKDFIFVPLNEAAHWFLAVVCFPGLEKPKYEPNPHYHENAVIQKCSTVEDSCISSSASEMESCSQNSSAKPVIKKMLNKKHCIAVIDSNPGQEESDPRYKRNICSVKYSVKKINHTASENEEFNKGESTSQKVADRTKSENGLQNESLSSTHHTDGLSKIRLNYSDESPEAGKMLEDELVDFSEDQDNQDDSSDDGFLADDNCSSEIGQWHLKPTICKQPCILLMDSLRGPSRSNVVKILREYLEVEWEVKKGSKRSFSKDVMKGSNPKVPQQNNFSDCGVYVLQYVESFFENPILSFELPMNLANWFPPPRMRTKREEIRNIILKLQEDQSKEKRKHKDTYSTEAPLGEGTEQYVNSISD

[5] = biological target: T5, Sentrin-specific protease 8 (Homo sapiens, UniProt Q96LD8); format: functional
T5 sequence (Q96LD8 whole entry): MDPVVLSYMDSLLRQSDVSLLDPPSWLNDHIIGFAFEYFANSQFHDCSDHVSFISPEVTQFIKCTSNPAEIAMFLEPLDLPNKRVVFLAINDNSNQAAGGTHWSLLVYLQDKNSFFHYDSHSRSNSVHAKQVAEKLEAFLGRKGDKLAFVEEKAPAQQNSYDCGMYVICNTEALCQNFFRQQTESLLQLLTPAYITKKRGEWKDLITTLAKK

[6] = biological target: T6, Sentrin-specific protease 7 (Homo sapiens, UniProt Q9BQF6); format: functional;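 further: Luminescence-based dose-response confirmation of ultra-high-throughput screening hits, measuring inhibition of SENP7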
T6 sequence (Q9BQF6 whole entry): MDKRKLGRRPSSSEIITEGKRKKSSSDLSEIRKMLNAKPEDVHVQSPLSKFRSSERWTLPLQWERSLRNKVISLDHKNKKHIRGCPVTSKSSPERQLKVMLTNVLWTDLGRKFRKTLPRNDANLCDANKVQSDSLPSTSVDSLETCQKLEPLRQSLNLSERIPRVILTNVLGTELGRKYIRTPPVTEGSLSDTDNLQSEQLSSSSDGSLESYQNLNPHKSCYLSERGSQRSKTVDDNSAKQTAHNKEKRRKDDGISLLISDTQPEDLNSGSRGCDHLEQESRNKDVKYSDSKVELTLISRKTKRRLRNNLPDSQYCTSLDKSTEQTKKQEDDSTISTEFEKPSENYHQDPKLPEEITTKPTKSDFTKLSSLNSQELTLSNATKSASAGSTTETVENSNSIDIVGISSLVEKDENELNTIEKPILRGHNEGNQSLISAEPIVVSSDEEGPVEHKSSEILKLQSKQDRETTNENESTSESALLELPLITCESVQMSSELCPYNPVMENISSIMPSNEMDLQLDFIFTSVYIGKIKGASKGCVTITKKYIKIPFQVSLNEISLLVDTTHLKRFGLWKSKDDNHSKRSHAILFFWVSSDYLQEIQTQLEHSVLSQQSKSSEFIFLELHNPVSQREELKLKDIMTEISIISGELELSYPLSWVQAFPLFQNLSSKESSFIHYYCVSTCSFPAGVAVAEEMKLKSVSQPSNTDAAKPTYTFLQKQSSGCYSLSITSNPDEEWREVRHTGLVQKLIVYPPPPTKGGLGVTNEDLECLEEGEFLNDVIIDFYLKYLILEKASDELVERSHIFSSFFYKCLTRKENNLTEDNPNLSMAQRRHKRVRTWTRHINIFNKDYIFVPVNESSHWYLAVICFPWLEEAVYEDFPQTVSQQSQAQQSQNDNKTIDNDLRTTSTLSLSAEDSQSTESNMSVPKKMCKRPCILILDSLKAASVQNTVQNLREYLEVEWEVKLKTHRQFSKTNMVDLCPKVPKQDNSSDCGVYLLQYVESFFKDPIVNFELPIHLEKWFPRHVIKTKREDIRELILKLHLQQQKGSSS

[7] = biological target: Ras and Rab interactor 1/Tyrosine-protein kinase ABL1 (Homo sapiens, UniProt P00519+Q13671); format: functional;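 further: biochemical TR-FRET dose-response test measuring inhibition of binding between Rin1 and Abl proteins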
Sequence of Ras and Rab interactor 1/Tyrosine-protein kinase ABL1 (P00519 whole entry): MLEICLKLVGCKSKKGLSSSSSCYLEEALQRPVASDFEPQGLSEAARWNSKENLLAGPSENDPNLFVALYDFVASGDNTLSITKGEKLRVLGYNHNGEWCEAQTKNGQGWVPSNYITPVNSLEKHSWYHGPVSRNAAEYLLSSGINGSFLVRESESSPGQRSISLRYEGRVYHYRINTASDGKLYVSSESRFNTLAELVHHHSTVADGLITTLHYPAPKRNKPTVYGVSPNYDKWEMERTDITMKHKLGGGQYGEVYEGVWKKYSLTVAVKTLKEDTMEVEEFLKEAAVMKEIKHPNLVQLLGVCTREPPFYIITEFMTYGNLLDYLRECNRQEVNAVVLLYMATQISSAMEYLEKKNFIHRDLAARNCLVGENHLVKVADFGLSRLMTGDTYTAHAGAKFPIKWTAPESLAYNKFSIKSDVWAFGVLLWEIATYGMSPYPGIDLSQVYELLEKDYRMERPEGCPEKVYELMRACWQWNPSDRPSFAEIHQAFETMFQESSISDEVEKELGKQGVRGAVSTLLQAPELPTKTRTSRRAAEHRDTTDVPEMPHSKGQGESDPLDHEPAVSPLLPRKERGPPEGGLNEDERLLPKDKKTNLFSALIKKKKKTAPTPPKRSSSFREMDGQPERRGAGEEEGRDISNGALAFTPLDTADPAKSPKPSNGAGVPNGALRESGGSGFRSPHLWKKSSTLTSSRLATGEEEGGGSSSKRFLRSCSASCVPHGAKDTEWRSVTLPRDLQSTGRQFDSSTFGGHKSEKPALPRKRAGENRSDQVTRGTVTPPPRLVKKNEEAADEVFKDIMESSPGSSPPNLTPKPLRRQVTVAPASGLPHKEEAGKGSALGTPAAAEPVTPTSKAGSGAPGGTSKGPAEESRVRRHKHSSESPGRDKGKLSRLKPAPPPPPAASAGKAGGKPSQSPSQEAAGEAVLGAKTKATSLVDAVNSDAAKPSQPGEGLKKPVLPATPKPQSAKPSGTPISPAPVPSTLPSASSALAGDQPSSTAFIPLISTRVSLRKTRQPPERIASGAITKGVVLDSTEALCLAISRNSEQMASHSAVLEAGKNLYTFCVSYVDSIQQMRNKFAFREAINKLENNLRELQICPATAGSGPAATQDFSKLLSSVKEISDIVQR
Sequence of Ras and Rab interactor 1/Tyrosine-protein kinase ABL1 (Q13671 whole entry): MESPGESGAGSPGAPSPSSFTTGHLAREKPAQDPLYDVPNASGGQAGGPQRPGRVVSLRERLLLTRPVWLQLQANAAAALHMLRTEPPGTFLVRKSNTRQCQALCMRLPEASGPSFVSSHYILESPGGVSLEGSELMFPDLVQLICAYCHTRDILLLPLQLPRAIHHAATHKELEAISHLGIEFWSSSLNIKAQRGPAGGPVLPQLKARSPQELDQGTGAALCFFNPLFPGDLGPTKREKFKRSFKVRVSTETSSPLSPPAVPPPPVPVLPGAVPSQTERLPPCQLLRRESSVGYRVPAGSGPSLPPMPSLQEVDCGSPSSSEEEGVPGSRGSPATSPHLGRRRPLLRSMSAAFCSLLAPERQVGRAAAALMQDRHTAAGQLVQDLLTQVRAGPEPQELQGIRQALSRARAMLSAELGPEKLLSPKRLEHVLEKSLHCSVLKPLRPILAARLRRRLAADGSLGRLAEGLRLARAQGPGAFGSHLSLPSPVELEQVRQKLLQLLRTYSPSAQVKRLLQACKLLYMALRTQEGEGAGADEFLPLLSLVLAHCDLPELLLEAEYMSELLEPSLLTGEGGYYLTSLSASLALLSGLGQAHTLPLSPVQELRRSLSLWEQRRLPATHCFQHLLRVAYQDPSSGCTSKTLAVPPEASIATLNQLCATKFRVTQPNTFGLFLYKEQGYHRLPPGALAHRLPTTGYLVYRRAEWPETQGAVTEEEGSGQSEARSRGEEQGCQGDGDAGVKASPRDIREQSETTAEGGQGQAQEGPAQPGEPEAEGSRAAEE

Paired box protein Pax-8 = Paired box protein Pax-8 (Homo sapiens, UniProt Q06710); test: PAX8 transcriptional activity inhibition in RMG-I – RMG-I cells, luciferase, cherry-pick, dose response (AID 687027); format: functional, cell-based;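 further: luciferase reporter driven by Pax8 target thyroperoxidase promoter measured by SteadyGlo luminescence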
Sequence of Paired box protein Pax-8 (Q06710 whole entry): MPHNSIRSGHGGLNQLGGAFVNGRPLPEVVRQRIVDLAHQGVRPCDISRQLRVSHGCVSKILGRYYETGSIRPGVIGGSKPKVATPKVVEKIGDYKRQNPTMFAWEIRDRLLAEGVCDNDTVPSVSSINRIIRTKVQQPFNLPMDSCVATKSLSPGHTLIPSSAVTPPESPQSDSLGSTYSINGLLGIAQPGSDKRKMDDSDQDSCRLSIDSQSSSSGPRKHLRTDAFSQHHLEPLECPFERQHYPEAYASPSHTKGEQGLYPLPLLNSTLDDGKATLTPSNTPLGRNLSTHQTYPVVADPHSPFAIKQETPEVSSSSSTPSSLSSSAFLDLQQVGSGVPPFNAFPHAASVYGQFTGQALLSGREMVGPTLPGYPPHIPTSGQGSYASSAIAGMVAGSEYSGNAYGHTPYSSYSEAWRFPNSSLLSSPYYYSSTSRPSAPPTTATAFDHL

[8] = non-specific 3'UTR reporter inhibition in Clone20-Shn3RL – cell-based, Renilla luciferase, cherry-picked, counter-screen for Shn3 inhibitor project, dose response (AID 624133); format: functional
[9] = reduction of Shn3 3'UTR-driven luciferase in osteoblasts – cell-based, Clone20 osteoblasts, firefly luciferase, cherry-picked, dose response (AID 624132); format: functional;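 further: firefly luciferase luminescence from reporter carrying the Shn3 3'UTR in osteoblasts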
[10] = loss of viability in HepG2 cells – cell-based, CellTiter-Glo, cherry-picked, cytotoxicity control for Shn3 inhibitor project, dose response (AID 624134); format: functional
[11] = biological target: T5, Sentrin-specific protease 8; format: functional; remark: listed apart in the source
[12] = biological target: Heat shock protein HSP 90-alpha (Homo sapiens, UniProt P07900); format: functional, organism-based
[13] = biological target: T5, Sentrin-specific protease 8; format: functional; remark: listed apart in the source
Vero [14] = test: cells; format: functional; details: Chlorocebus sabaeus
Protein Tat = biological target: T7, Protein Tat (Human immunodeficiency virus type 1 group M subtype B (isolate HXB2)(HIV-1), UniProt P04608); format: functional;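 further: tat binding to TAR RNA read out by fluorescence polarization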
T7 sequence (P04608 whole entry): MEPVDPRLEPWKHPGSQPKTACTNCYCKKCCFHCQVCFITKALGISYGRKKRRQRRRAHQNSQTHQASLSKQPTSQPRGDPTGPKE

[15] = viability loss in THP-1 monocytes – THP-1 cells, cytotoxicity control for Vif-APOBEC3G degradation inhibitor project, dose response (AID 1117359); format: functional; details: THP-1
Nonstructural protein 1 = Nonstructural protein 1 (Influenza A virus, UniProt Q194T2); format: functional, Influenza A virus (A/California/07/2009(H1N1))
Sequence of Nonstructural protein 1 (Q194T2 whole entry): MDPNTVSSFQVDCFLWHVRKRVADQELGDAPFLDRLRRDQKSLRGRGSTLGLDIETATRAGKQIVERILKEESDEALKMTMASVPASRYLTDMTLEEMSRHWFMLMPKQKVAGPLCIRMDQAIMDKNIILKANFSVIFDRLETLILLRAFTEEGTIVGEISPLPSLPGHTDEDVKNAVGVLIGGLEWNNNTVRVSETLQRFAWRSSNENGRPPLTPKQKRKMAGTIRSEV

[16] = THP-1 cell cytotoxicity, dose response, cytotoxicity control for non-replicating M. tuberculosis project (AID 489025); format: functional
[17] = HepG2 cell cytotoxicity, dose response, cytotoxicity control for non-replicating M. tuberculosis project (AID 489018); format: functional; details: Mycobacterium tuberculosis

With `Cc1cc(C)c2nc(-c3ccccn3)cc(C(=O)NCc3ccco3)c2c1` the CC50 (Vero [1]) was > 40 µM (active) and the IC50 (Estrogen receptor) was > 50 µM (not active).

In the case of `Cc1nn(-c2cccc(Cl)c2)c2nc(-c3ccco3)cc(C(=O)O)c12`, the IC50 (Genome polyprotein) is reported as > 100 µM (active) and the CC50 (Vero [1]) is reported as > 40 µM (active).

In the case of `C=CCN1CCc2nc(N)sc2CC1` [TALIPEXOLE HYDROCHLORIDE], the EC50 (Mu-type opioid receptor) is reported as 92.6 µM (inactive), the EC50 [2] is reported as 0.0137 µM (active) and the AC50 [3] is reported as 6.04 µM (active).

With `COc1ccc(C(=O)COC(=O)c2n[nH]c3ccccc23)c(OC)c1` the IC50 (Caspase-3) was 33 µM (active), the IC50 [4] was 29.9 µM (active) and the IC50 [5] was 40.3 µM (active). For the same compound, the IC50 [6] was 8.72 µM (active).

In the case of `Clc1ncc(CN2CCN(c3ccccc3)CC2)s1`, the EC50 (Mu-type opioid receptor) is reported as 92.5 µM (inactive) and the EC50 [2] is reported as 0.815 µM (active).

In the case of `COc1cc2c(C(=O)N3CCN(c4cccc(Cl)c4)CC3)cn(C)c(=O)c2cc1OC`, the IC50 [7] is reported as 20.5 µM (inactive).

With `COc1ccc(C(N)=NOC(=O)Cc2cccs2)cc1` the IC50 (Caspase-3) was 32 µM (active), the IC50 [4] was 37.2 µM (active) and the IC50 [5] was 6.43 µM (active). The IC50 [6] was 11.3 µM (active).

For `COc1cccc(C(c2nnnn2-c2ccc3c(c2)OCCO3)N2CCC(n3c(O)nc4ccccc43)CC2)c1OC` (centres undefined), the AC50 (Paired box protein Pax-8) was 1.52 µM (active), the AC50 [8] was 5.67 µM (active) and the AC50 [9] was 3.74 µM (active). The AC50 [10] was > 70 µM (inactive) and the IC50 [7] was > 73.4 µM (inactive).

With `Cc1cc(C)cc(/N=C/c2ccc([N+](=O)[O-])s2)c1` the IC50 [11] was 14.1 µM (active), the AC50 [12] was 4.15 µM (active) and the IC50 [13] was 2.56 µM (active).

In the case of `O=[N+]([O-])c1cc2no[n+]([O-])c2cc1N1CCCCC1`, the CC50 (Vero [14]) is reported as 24.7 µM (active), the IC50 (Protein Tat) is reported as > 100 µM (active) and the IC50 (Genome polyprotein) is reported as 6.38 µM (active). The CC50 [15] was 36.9 µM (active), the CC50 (Vero [1]) was 27.6 µM (active) and the IC50 (Nonstructural protein 1) was 31.7 µM (active). For the same compound, the AC50 [12] was 1.62 µM (active).

In the case of `CCSc1nsc(NC(=O)Nc2ccc(F)cc2F)n1`, the CC50 [16] is reported as 28.3 µM (active), the CC50 [17] is reported as > 20 µM (active) and the IC50 (Caspase-3) is reported as 39.5 µM (active). For the same compound, the IC50 [4] was > 100 µM (inactive), the IC50 [5] was > 100 µM (inactive) and the IC50 [6] was 13.7 µM (active).
